Reference: PubChem BioAssay (NCI)
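All cell lines were grown in 96-well plates and treated with compound for 48 hours. Abbreviation: GI50, concentration required for 50% inhibition of growth. TGI is the concentration that stops growth completely.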

Legend:
Assay in all cases: growth of human tumour cells (NCI), 48 h
PC-3 prostate = tested on: PC-3 prostate
HOP-92 NSCLC = tested on: HOP-92 NSCLC
HCT-15 colon = tested on: HCT-15 colon
A549 NSCLC = tested on: A549 NSCLC
HOP-62 NSCLC = tested on: HOP-62 NSCLC
NCI/ADR-RES ovarian = tested on: NCI/ADR-RES ovarian
SW-620 colon = tested on: SW-620 colon
NCI-H23 lung = tested on: NCI-H23 lung
HL-60(TB) leukemia = tested on: HL-60(TB) leukemia
SN12C renal = tested on: SN12C renal
UACC-257 melanoma = tested on: UACC-257 melanoma
MDA-MB-468 breast = tested on: MDA-MB-468 breast
SK-MEL-28 melanoma = tested on: SK-MEL-28 melanoma
SK-MEL-2 melanoma = tested on: SK-MEL-2 melanoma
ACHN renal = tested on: ACHN renal
OVCAR-4 ovarian = tested on: OVCAR-4 ovarian
SF-268 CNS = tested on: SF-268 CNS
MALME-3M melanoma = tested on: MALME-3M melanoma
NCI-H226 lung = tested on: NCI-H226 lung
EKVX NSCLC = tested on: EKVX NSCLC
786-0 renal = tested on: 786-0 renal
CCRF-CEM leukemia = tested on: CCRF-CEM leukemia
HCC-2998 colon = tested on: HCC-2998 colon
UO-31 renal = tested on: UO-31 renal
OVCAR-3 ovarian = tested on: OVCAR-3 ovarian
OVCAR-5 ovarian = tested on: OVCAR-5 ovarian
MDA-MB-435 = tested on: MDA-MB-435
SNB-19 CNS = tested on: SNB-19 CNS
T-47D breast = tested on: T-47D breast
UACC-62 melanoma = tested on: UACC-62 melanoma

## O=C(Nc1ccc(Cl)c(C(F)(F)F)c1)N1CCN(c2cc(-c3cn(-c4ccccc4)nc3-c3cccc(O)c3)ccn2)CC1
PC-3 prostate
  GI50: 0.967 µM
  TGI: 17 µM
HOP-92 NSCLC
  GI50: 2.59 µM
  TGI: 15.9 µM
HCT-15 colon
  GI50: 2.84 µM
  TGI: > 22 µM
A549 NSCLC
  GI50: 4.34 µM
  TGI: > 22 µM
HOP-62 NSCLC
  GI50: 6.28 µM
  TGI: > 22 µM
NCI/ADR-RES ovarian
  GI50: 2.91 µM
  TGI: 11.9 µM
SW-620 colon
  GI50: 4.78 µM
  TGI: > 22 µM
NCI-H23 lung
  GI50: 3.69 µM
  TGI: 14.9 µM
HL-60(TB) leukemia
  GI50: 2.34 µM
  TGI: 8.58 µM
SN12C renal
  GI50: 3.21 µM
  TGI: > 22 µM
UACC-257 melanoma
  GI50: 4.77 µM
  TGI: 14.3 µM
MDA-MB-468 breast
  GI50: 1.03 µM
  TGI: 7.22 µM
SK-MEL-28 melanoma
  GI50: 3.41 µM
  TGI: 10.3 µM
SK-MEL-2 melanoma
  GI50: 3.54 µM
  TGI: 7.56 µM
ACHN renal
  GI50: 3 µM
  TGI: 17 µM
OVCAR-4 ovarian
  GI50: 2.02 µM
  TGI: > 22 µM
SF-268 CNS
  GI50: 3.3 µM
  TGI: > 22 µM
MALME-3M melanoma
  GI50: 3.3 µM
  TGI: 8.95 µM
NCI-H226 lung
  GI50: 3.22 µM
  TGI: 15.8 µM
EKVX NSCLC
  GI50: 2.57 µM
  TGI: 19.6 µM
786-0 renal
  GI50: 4.02 µM
  TGI: > 22 µM
CCRF-CEM leukemia
  GI50: 1.59 µM
  TGI: 9.71 µM
HCC-2998 colon
  GI50: 6.1 µM
  TGI: > 22 µM
UO-31 renal
  GI50: 3 µM
  TGI: > 22 µM
OVCAR-3 ovarian
  GI50: 1.76 µM
  TGI: 11.5 µM
OVCAR-5 ovarian
  GI50: 4.13 µM
  TGI: 10.5 µM
MDA-MB-435
  GI50: 2.29 µM
  TGI: 6.33 µM
SNB-19 CNS
  GI50: 4.06 µM
  TGI: > 22 µM
T-47D breast
  GI50: 1.13 µM
  TGI: 14.8 µM
UACC-62 melanoma
  GI50: 2.68 µM
